Measured values taken from ChEMBL document CHEMBL4507302, “Data for DCP probe TP-020” (2021).

Legend:
[1] = molecular target: Mitogen-activated protein kinase kinase kinase 7 (Homo sapiens) (UniProt O43318); conditions: Compound concentration 1000.0 nM
[2] = molecular target: Serine/threonine-protein kinase PAK 5 (Homo sapiens) (UniProt Q9P286); conditions: Compound concentration 1000.0 nM
[3] = molecular target: Myosin-IIIb (Homo sapiens) (UniProt Q8WXR4); conditions: Compound concentration 1000.0 nM
[4] = molecular target: Mitogen-activated protein kinase kinase kinase 1 (Homo sapiens) (UniProt Q13233); conditions: Compound concentration 1000.0 nM
[5] = molecular target: Serine/threonine-protein kinase SIK2 (Homo sapiens) (UniProt Q9H0K1); conditions: Compound concentration 1000.0 nM
[6] = molecular target: TRAF2 and NCK-interacting protein kinase (Homo sapiens) (UniProt Q9UKE5); conditions: Compound concentration 1000.0 nM
[7] = molecular target: Fibroblast growth factor receptor 3 (Homo sapiens) (UniProt P22607); conditions: Compound concentration 1000.0 nM
[8] = molecular target: Serine/threonine-protein kinase 33 (Homo sapiens) (UniProt Q9BYT3); conditions: Compound concentration 1000.0 nM
[9] = molecular target: Protein kinase C iota type (Homo sapiens) (UniProt P41743); conditions: Compound concentration 1000.0 nM
[10] = molecular target: Vascular endothelial growth factor receptor 3 (Homo sapiens) (UniProt P35916); conditions: Compound concentration 1000.0 nM
[11] = molecular target: Serine/threonine-protein kinase PAK 2 (Homo sapiens) (UniProt Q13177); conditions: Compound concentration 1000.0 nM
[12] = molecular target: Tyrosine-protein kinase Lck (Homo sapiens) (UniProt P06239); conditions: Compound concentration 1000.0 nM
[13] = molecular target: Tyrosine-protein kinase TXK (Homo sapiens) (UniProt P42681); conditions: Compound concentration 1000.0 nM
[14] = molecular target: Mitogen-activated protein kinase 8 (Homo sapiens) (UniProt P45983); conditions: Compound concentration 1000.0 nM
[15] = molecular target: Serine/threonine-protein kinase/endoribonuclease IRE1 (Homo sapiens) (UniProt O75460); conditions: Compound concentration 1000.0 nM
[16] = molecular target: Non-receptor tyrosine-protein kinase TYK2 (Homo sapiens) (UniProt P29597); conditions: Compound concentration 1000.0 nM
[17] = molecular target: Receptor tyrosine-protein kinase erbB-4 (Homo sapiens) (UniProt Q15303); conditions: Compound concentration 1000.0 nM
[18] = molecular target: Histamine H4 receptor (Homo sapiens) (UniProt Q9H3N8); conditions: Compound concentration 10.0 uM
[19] = molecular target: Mitogen-activated protein kinase kinase kinase 10 (Homo sapiens) (UniProt Q02779); conditions: Compound concentration 1000.0 nM
[20] = molecular target: cAMP-dependent protein kinase catalytic subunit PRKX (Homo sapiens) (UniProt P51817); conditions: Compound concentration 1000.0 nM
[21] = molecular target: Ankyrin repeat and protein kinase domain-containing protein 1 (Homo sapiens) (UniProt Q8NFD2); conditions: Compound concentration 1000.0 nM
[22] = system: Phosphatidylinositol 4,5-bisphosphate 3-kinase catalytic subunit alpha isoform (Homo sapiens), P42336 [I800L]; conditions: Compound concentration 1000.0 nM
[23] = molecular target: Bone morphogenetic protein receptor type-1A (Homo sapiens) (UniProt P36894); conditions: Compound concentration 1000.0 nM
[24] = molecular target: Serine/threonine-protein kinase Sgk3 (Homo sapiens) (UniProt Q96BR1); conditions: Compound concentration 1000.0 nM
[25] = system: Epidermal growth factor receptor (Homo sapiens), P00533 [G719C]; conditions: Compound concentration 1000.0 nM
[26] = molecular target: Serine/threonine-protein kinase 17A (Homo sapiens) (UniProt Q9UEE5); conditions: Compound concentration 1000.0 nM
[27] = molecular target: Mitogen-activated protein kinase 3 (Homo sapiens) (UniProt P27361); conditions: Compound concentration 1000.0 nM
[28] = molecular target: Serine/threonine-protein kinase 4 (Homo sapiens) (UniProt Q13043); conditions: Compound concentration 1000.0 nM
[29] = molecular target: Dual specificity mitogen-activated protein kinase kinase 1 (Homo sapiens) (UniProt Q02750); conditions: Compound concentration 1000.0 nM
[30] = molecular target: Serine/threonine-protein kinase NIM1 (Homo sapiens) (UniProt Q8IY84); conditions: Compound concentration 1000.0 nM
[31] = molecular target: Mast/stem cell growth factor receptor Kit (Homo sapiens) (UniProt P10721); conditions: Compound concentration 1000.0 nM
[32] = molecular target: Tyrosine-protein kinase HCK (Homo sapiens) (UniProt P08631); conditions: Compound concentration 1000.0 nM
[33] = molecular target: Phosphatidylinositol 4-phosphate 5-kinase type-1 alpha (Homo sapiens) (UniProt Q99755); conditions: Compound concentration 1000.0 nM
[34] = molecular target: Serine/threonine-protein kinase MAK (Homo sapiens) (UniProt P20794); conditions: Compound concentration 1000.0 nM
[35] = molecular target: 5-hydroxytryptamine receptor 3A (Homo sapiens) (UniProt P46098); conditions: Compound concentration 10.0 uM
[36] = molecular target: cAMP-dependent protein kinase catalytic subunit alpha (Homo sapiens) (UniProt P17612); conditions: Compound concentration 1000.0 nM
[37] = molecular target: Leukocyte tyrosine kinase receptor (Homo sapiens) (UniProt P29376); conditions: Compound concentration 1000.0 nM
[38] = molecular target: Misshapen-like kinase 1 (Homo sapiens) (UniProt Q8N4C8); conditions: Compound concentration 1000.0 nM
[39] = molecular target: Glycogen synthase kinase-3 alpha (Homo sapiens) (UniProt P49840); conditions: Compound concentration 1000.0 nM
[40] = system: eIF-2-alpha kinase GCN2 (Homo sapiens), Q9P2K8 [S808G]; conditions: Compound concentration 1000.0 nM
[41] = molecular target: Cyclin-dependent kinase 7 (Homo sapiens) (UniProt P50613); conditions: Compound concentration 1000.0 nM
[42] = molecular target: Death-associated protein kinase 1 (Homo sapiens) (UniProt P53355); conditions: Compound concentration 1000.0 nM
[43] = molecular target: Phosphatidylinositol 4,5-bisphosphate 3-kinase catalytic subunit gamma isoform (Homo sapiens) (UniProt P48736); conditions: Compound concentration 1000.0 nM
[44] = molecular target: SRSF protein kinase 2 (Homo sapiens) (UniProt P78362); conditions: Compound concentration 1000.0 nM
[45] = molecular target: NUAK family SNF1-like kinase 2 (Homo sapiens) (UniProt Q9H093); conditions: Compound concentration 1000.0 nM

Chain of Histamine H4 receptor (Homo sapiens) (Q9H3N8 whole entry): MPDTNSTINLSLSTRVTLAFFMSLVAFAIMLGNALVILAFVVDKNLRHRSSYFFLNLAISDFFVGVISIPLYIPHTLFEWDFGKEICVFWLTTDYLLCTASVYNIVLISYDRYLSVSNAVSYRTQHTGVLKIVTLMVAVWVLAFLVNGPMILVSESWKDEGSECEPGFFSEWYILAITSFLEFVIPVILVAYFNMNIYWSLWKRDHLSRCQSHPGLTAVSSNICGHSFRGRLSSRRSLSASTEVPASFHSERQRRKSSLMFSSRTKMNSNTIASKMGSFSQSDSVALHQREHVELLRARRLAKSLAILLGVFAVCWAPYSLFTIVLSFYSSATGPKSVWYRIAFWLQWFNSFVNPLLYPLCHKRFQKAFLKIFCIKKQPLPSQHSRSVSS
Chain of Serine/threonine-protein kinase SIK2 (Homo sapiens) (Q9H0K1 whole entry, looked up): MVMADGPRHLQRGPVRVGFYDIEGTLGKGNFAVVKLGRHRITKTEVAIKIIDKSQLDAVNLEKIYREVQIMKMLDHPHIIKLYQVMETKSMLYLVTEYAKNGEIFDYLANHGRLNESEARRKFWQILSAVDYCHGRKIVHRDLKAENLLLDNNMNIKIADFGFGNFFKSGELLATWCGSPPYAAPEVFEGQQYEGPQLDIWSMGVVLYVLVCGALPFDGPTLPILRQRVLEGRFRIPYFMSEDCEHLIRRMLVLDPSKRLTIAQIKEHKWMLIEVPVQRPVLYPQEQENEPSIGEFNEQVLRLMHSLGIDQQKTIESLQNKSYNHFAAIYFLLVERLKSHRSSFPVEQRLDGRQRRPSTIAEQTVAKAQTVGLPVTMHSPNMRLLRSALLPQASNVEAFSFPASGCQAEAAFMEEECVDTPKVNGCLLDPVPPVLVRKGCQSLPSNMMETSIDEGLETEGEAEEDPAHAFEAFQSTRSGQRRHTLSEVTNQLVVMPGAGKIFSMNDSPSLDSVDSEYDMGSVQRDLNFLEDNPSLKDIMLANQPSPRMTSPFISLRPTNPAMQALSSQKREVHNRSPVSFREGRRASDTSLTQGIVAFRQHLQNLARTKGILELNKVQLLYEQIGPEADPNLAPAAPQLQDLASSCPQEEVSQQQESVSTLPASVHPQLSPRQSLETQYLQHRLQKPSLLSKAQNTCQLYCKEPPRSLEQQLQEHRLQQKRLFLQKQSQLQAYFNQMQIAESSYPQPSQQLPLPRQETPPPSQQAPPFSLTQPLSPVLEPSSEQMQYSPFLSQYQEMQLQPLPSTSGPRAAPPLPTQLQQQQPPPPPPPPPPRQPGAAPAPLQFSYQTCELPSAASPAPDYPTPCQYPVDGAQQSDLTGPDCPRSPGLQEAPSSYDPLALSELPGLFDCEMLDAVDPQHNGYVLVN
Chain of Misshapen-like kinase 1 (Homo sapiens) (Q8N4C8 whole entry, looked up): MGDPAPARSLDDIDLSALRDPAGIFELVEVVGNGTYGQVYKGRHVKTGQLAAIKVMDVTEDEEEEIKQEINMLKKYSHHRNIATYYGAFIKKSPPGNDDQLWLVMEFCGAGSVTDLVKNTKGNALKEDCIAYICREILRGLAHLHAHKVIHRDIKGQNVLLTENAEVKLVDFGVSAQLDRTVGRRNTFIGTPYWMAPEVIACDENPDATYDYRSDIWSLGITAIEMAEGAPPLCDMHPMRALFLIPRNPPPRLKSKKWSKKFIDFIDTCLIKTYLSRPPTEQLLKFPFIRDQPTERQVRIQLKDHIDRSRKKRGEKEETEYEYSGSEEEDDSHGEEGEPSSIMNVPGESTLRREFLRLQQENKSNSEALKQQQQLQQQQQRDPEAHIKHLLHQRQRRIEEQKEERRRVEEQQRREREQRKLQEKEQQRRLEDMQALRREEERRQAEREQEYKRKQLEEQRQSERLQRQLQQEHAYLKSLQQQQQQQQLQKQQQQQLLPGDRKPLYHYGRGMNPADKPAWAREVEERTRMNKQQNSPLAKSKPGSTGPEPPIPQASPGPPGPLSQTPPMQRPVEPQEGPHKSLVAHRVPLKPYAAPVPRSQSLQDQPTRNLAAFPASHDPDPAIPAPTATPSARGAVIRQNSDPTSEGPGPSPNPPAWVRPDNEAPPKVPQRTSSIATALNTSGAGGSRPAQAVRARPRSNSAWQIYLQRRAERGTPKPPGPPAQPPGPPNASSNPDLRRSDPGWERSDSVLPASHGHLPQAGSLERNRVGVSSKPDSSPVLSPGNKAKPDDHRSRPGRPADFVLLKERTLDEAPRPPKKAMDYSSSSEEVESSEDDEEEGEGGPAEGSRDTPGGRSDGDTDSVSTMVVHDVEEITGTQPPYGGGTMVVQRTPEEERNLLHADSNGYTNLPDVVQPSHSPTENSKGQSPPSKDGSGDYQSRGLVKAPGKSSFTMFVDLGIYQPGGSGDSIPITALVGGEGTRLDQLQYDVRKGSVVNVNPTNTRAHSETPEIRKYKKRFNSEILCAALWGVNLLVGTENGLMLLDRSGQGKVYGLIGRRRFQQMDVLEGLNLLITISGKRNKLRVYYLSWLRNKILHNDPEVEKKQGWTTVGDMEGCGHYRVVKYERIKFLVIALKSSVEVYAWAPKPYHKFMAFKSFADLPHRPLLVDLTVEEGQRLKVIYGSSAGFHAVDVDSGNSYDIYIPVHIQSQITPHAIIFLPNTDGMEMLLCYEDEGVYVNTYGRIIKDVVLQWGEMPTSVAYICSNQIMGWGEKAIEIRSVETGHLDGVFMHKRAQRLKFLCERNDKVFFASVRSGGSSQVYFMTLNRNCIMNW
Chain of Phosphatidylinositol 4,5-bisphosphate 3-kinase catalytic subunit gamma isoform (Homo sapiens) (P48736 whole entry, looked up, canonical isoform): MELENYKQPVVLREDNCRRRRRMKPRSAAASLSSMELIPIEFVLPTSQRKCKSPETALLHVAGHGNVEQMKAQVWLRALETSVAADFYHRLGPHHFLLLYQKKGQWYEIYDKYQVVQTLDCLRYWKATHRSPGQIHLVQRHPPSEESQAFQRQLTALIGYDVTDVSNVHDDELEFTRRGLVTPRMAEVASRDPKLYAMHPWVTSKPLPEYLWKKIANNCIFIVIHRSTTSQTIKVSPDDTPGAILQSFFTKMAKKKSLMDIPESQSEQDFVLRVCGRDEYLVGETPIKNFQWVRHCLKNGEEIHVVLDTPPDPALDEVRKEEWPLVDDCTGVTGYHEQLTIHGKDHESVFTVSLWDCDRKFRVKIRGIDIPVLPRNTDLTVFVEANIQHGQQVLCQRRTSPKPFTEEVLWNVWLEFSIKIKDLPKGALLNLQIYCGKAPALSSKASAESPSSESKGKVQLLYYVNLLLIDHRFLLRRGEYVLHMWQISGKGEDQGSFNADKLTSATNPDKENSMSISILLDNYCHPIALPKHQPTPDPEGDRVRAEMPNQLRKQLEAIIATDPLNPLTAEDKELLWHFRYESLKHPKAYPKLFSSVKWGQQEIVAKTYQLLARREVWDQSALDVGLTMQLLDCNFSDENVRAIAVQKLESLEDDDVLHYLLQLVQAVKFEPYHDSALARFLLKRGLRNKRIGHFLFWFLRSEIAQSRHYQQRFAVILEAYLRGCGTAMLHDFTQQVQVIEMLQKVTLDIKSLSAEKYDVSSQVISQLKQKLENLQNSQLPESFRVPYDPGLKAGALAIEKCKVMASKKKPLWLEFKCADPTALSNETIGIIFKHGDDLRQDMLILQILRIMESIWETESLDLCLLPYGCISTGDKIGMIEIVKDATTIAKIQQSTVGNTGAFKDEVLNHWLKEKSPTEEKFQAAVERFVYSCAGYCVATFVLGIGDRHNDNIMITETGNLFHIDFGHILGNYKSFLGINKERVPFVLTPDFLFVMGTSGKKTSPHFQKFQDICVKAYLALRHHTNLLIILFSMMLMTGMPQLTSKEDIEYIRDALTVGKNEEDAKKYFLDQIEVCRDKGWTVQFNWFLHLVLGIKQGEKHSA
Chain of TRAF2 and NCK-interacting protein kinase (Homo sapiens) (Q9UKE5 whole entry, looked up): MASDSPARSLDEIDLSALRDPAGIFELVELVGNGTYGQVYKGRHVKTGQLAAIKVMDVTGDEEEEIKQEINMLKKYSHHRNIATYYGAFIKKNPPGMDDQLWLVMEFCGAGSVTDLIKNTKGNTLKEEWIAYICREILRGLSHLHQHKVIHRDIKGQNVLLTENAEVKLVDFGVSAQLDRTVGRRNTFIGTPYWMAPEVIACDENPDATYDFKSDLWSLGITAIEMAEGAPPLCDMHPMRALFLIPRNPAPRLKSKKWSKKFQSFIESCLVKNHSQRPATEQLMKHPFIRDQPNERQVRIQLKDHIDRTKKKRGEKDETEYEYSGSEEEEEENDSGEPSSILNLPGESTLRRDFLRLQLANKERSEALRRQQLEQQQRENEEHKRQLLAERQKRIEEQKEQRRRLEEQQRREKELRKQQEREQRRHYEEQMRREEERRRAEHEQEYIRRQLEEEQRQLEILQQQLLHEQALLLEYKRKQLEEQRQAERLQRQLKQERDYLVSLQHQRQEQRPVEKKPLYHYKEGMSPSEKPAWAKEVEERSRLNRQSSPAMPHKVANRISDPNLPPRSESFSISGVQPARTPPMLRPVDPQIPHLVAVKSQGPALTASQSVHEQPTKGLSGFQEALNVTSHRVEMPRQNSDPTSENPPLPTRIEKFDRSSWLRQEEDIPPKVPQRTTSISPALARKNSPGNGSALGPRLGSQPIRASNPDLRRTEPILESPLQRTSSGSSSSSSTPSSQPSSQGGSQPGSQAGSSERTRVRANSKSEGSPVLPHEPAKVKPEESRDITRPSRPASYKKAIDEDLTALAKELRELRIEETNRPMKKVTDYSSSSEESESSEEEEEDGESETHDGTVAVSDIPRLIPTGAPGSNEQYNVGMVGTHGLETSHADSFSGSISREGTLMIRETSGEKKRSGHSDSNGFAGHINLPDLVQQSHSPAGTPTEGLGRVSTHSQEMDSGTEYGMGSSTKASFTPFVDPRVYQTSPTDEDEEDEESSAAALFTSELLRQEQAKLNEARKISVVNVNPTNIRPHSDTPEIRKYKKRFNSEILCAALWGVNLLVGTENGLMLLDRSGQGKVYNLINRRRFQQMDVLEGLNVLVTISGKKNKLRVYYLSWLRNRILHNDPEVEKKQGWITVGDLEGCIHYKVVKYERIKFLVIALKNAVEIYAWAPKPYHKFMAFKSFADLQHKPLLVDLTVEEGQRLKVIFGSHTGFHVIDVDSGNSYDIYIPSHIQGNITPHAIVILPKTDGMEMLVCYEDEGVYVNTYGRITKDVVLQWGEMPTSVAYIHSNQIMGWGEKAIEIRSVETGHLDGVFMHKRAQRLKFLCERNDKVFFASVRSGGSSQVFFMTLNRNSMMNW

Q: For `Cn1nc(C(F)(F)F)cc1-c1cnc(N2CCc3cc(S(=O)(=O)Nc4c(F)cc(Cl)cc4F)cc(N4CCCC4=O)c32)nc1` [TP-020], which residual activity [1] is on record?
A: Its residual activity is 79%.

Q: What about the residual activity [2] of the same compound?
A: The residual activity was 100%.

Q: And the residual activity [3]?
A: Its residual activity is 100%.

Q: And the residual activity [4]?
A: The residual activity was 70%.

Q: And the residual activity [5]?
A: The residual activity was 100%.

Q: And the residual activity [6]?
A: The residual activity was 100%.

Q: What about the residual activity [7] of the same compound?
A: Its residual activity is 100%.

Q: What about the residual activity [8] of the same compound?
A: The residual activity was 100%.

Q: What about the residual activity [9] of the same compound?
A: The residual activity was 94%.

Q: And the residual activity [10]?
A: The residual activity was 96%.

Q: And the residual activity [11]?
A: Its residual activity is 100%.

Q: And the residual activity [12]?
A: Its residual activity is 100%.

Q: And the residual activity [13]?
A: Its residual activity is 100%.

Q: And the residual activity [14]?
A: Its residual activity is 100%.

Q: And the residual activity [15]?
A: The residual activity was 92%.

Q: What about the residual activity [16] of the same compound?
A: The residual activity was 78%.

Q: And the residual activity [17]?
A: The residual activity was 94%.

Q: And the inhibition [18]?
A: The inhibition was 10.9%.

Q: And the residual activity [19]?
A: Its residual activity is 93%.

Q: And the residual activity [20]?
A: The residual activity was 97%.

Q: And the residual activity [21]?
A: The residual activity was 96%.

Q: What about the residual activity [22] of the same compound?
A: Its residual activity is 77%.

Q: What about the residual activity [23] of the same compound?
A: Its residual activity is 98%.

Q: And the residual activity [24]?
A: Its residual activity is 78%.

Q: And the residual activity [25]?
A: Its residual activity is 100%.

Q: And the residual activity [26]?
A: The residual activity was 83%.

Q: And the residual activity [27]?
A: Its residual activity is 100%.

Q: And the residual activity [28]?
A: The residual activity was 92%.

Q: And the residual activity [29]?
A: The residual activity was 95%.

Q: What about the residual activity [30] of the same compound?
A: The residual activity was 80%.

Q: And the residual activity [31]?
A: The residual activity was 94%.

Q: What about the residual activity [32] of the same compound?
A: The residual activity was 95%.

Q: What about the residual activity [33] of the same compound?
A: Its residual activity is 100%.

Q: And the residual activity [34]?
A: The residual activity was 100%.

Q: And the inhibition [35]?
A: Its inhibition is 7.45%.

Q: And the residual activity [36]?
A: Its residual activity is 100%.

Q: What about the residual activity [37] of the same compound?
A: Its residual activity is 94%.

Q: What about the residual activity [38] of the same compound?
A: Its residual activity is 99%.

Q: And the residual activity [39]?
A: Its residual activity is 95%.

Q: And the residual activity [40]?
A: Its residual activity is 100%.

Q: What about the residual activity [41] of the same compound?
A: Its residual activity is 75%.

Q: And the residual activity [42]?
A: Its residual activity is 96%.

Q: And the residual activity [43]?
A: The residual activity was 88%.

Q: What about the residual activity [44] of the same compound?
A: Its residual activity is 34%.

Q: And the residual activity [45]?
A: Its residual activity is 89%.

Q: Which results are given for `Nc1cnc(N2CCc3cc(S(=O)(=O)Nc4c(F)cc(Cl)cc4F)cc(N4CCCC4=O)c32)nc1`?
A: residual activity [1]: 100%; residual activity [2]: 90%; residual activity [3]: 100%; residual activity [4]: 100%; residual activity [5]: 100%; residual activity [6]: 100%; residual activity [7]: 100%; residual activity [8]: 80%; residual activity [9]: 100%; residual activity [10]: 86%; residual activity [11]: 78%; residual activity [12]: 100%; residual activity [13]: 83%; residual activity [14]: 78%; residual activity [15]: 100%; residual activity [16]: 100%; residual activity [17]: 100%; inhibition [18]: -0.37%; residual activity [19]: 75%; residual activity [20]: 99%; residual activity [21]: 100%; residual activity [22]: 80%; residual activity [23]: 91%; residual activity [24]: 100%; residual activity [25]: 100%; residual activity [26]: 100%; residual activity [27]: 91%; residual activity [28]: 100%; residual activity [29]: 100%; residual activity [30]: 100%; residual activity [31]: 100%; residual activity [32]: 100%; residual activity [33]: 100%; residual activity [34]: 96%; inhibition [35]: 0.32%; residual activity [36]: 100%; residual activity [37]: 100%; residual activity [38]: 100%; residual activity [39]: 100%; residual activity [40]: 100%; residual activity [41]: 100%; residual activity [42]: 100%; residual activity [43]: 81%; residual activity [44]: 100%; residual activity [45]: 100%
